From patent US5869447A, “Cyclohexapeptides and their mixtures, a process for preparing them, and their use” (Hoechst Aktiengesellschaft, priority 1994, dated 1999)
≈ marks a conversion by molar mass, not a printed value. Square brackets hold non-standard residues; d marks the D form. Peptide text beside a SMILES is read from it. Hyp = O=C(O)[C@@H]1C[C@@H](O)CN1

Each compound was assayed on IL-4 receptor (receptor/Fc fusion protein) (assay: Specific inhibition of IL-4 binding in cell-free binding assays (IC50 table)). Conditions: cell-free IL-4 binding assay, biotinylated ligand 100 ng/ml, PBSA with 5% DMSO; table does not say whether huIL-4 or muIL-4 test.
Excerpt: Specific inhibition of IL-4 Binding in Cell-free Binding Assays.
EP 488 170 A1, which is incorporated herein by reference, discloses cell-free binding tests. For carrying them out, recombinant chimeric proteins were used which comprise the extracellular region of what are normally membrane-located receptors on to whose carboxyl terminus has been fused the Fc region of a heavy immunoglobulin chain composed of hinge, CH2 and CH3 domains. These so-called receptor/Fc fusion proteins can be bound, while retaining the specific receptor binding activity, to solid phases which have previously been coated, for example, with monoclonal antibodies directed against the Fc moiety. For this example, Nunc® type B ELISA plates were used as the solid phase. Receptor/Fc fusion proteins, dissolved in PBS containing 10 mg/ml BSA (PBSA), were bonded to these pre-treated plates (huIL-4R/Fc: 500 ng/ml; muIL-4R/Fc: 250 ng/ml; huIL-lR/Fc: 125 ng/ml; at room temperature for 1 h). […] The plates were incubated at room temperature for 1 h in PBSA containing 5% DMSO. After having been washed, the plates were incubated at room temperature for 20 min with streptavidin/peroxidase (Amersham, 1:2000 in PBSA). The bound peroxidase was detected after the plates had been washed repeatedly in a solution of tetramethylbenzidine substrate (Behringwerke). The extinction at 450 nm, which directly reflects the quantity of the biotinylated ligand bound to the receptor, was measured after the plates had been incubated for 30 min. For FIGS. 1-3, the measured extinction signal was plotted against the concentration of the competing agent with the 100% value being the extinction which was measured in the absence of any competing agent.

| Compound | IC50 [µg/mL] |
| --- | --- |
| CC(C)[C@@H]1NC(=O)[C@H](Cc2ccc(O)cc2)NC(=O)[C@@H](C)NC(=O)[C@H](C(C)C)NC(=O)[C@H](Cc2ccc(O)cc2)NC(=O)[C@H](CCCNC(=N)N)NC1=O [cyclo(Tyr--Val--Arg--Tyr--Val--(D)--Ala), cyclo(Tyr-Val-Arg-Tyr-Val-(D)-Ala)] (cyclo(RYV[dA]YV)) | 96.6 (≈ 128 µM) |
| CC(C)C[C@@H]1NC(=O)[C@H](C(C)C)NC(=O)[C@H](Cc2ccc(O)cc2)NC(=O)[C@@H](C)NC(=O)[C@H](C(C)C)NC(=O)[C@H](Cc2ccc(O)cc2)NC1=O [cyclo(Tyr--Val--Leu--Tyr--Val--(D)--Ala), cyclo(Tyr-Val-Leu-Tyr-Val-(D)-Ala)] (cyclo(LYV[dA]YV)) | 41.3 (≈ 58.3 µM) |
| CC[C@H](C)[C@@H]1NC(=O)[C@H](C(C)C)NC(=O)[C@H](Cc2ccc(O)cc2)NC(=O)[C@@H](C)NC(=O)[C@H](C(C)C)NC(=O)[C@H](Cc2ccc(O)cc2)NC1=O [cyclo(Tyr--Val--Ile--Tyr--Val--(D)--Ala), cyclo(Tyr-Val-Ile-Tyr-Val-(D)-Ala)] (cyclo(IYV[dA]YV)) | 62.5 (≈ 88.2 µM) |
| CC(C)[C@@H]1NC(=O)[C@H](Cc2ccc(O)cc2)NC(=O)[C@@H](C)NC(=O)[C@H](C(C)C)NC(=O)[C@H](Cc2ccc(O)cc2)NC(=O)[C@H]([C@@H](C)O)NC1=O [cyclo(Tyr--Val--Thr--Tyr--Val--(D)--Ala), cyclo(Tyr-Val-Thr-Tyr-Val-(D)-Ala)] (cyclo(TYV[dA]YV)) | 92.0 (≈ 132 µM) |
| CC(C)[C@@H]1NC(=O)[C@H](Cc2ccc(O)cc2)NC(=O)[C@@H](C)NC(=O)[C@H](C(C)C)NC(=O)[C@H](Cc2ccc(O)cc2)NC(=O)[C@H](C)NC1=O [cyclo(Tyr--Val--Ala--Tyr--Val--(D)--Ala), cyclo(Tyr-Val-Ala-Tyr-Val-(D)-Ala)] (cyclo(AYV[dA]YV)) | 8.3 (≈ 12.4 µM) |
| CC(C)[C@@H]1NC(=O)[C@H](C)NC(=O)[C@H](Cc2ccc(O)cc2)NC(=O)[C@H](C(C)C)NC(=O)[C@@H](C)NC(=O)[C@H](Cc2ccc(O)cc2)NC1=O [cyclo(Val--Tyr--Ala--Val--Tyr--(D)--Ala), cyclo(Val-Tyr-Ala-Val-Tyr-(D)-Ala)] (cyclo(AVY[dA]VY)) | 16.7 (≈ 25 µM) |
| CC(C)[C@@H]1NC(=O)[C@H](Cc2ccc(O)cc2)NC(=O)[C@@H]2C[C@@H](O)CN2C(=O)[C@H](C(C)C)NC(=O)[C@H](Cc2ccc(O)cc2)NC(=O)[C@@H](C)NC1=O [cyclo(Tyr--Val--Hyp--Tyr--Val--(D)--Ala), cyclo(Tyr-Val-Hyp-Tyr-Val-(D)-Ala)] (cyclo([Hyp]YV[dA]YV)) | 17.4 (≈ 24.5 µM) |
